Experimental data from US20090170762A1, “Treatment of Diabetes Related Obesity” (UUTech Limited, priority 2005, published 2009).
Entries after “also recorded” stand apart in the source; their conditions may differ. Ends that are not written are not given here.

Legend:
DPP-IV = DPP-IV (Homo sapiens, UniProt P27487); assay: Degradation of GIP and Glu3-substituted GIP analogs by DPP-IV (HPLC); format: in vitro ADME
ob/ob mice [1] = assay: Daily (Pro3)GIP for 60 days in young ob/ob mice; format: in vivo, mouse
Protocol: Young obese diabetic (ob/ob) mice derived from the colony maintained at Aston University, UK (Bailey, C. J. et al., 1982, Int. J. Obes. 6:11-21) were used at 5-7 weeks of age. Normal lean control mice from the same colony were used in comparative experiments (See Example 6, below). Animals were age-matched, divided into groups and housed individually in an air-conditioned room at 22±2° C. with a 12 hours light:12 hours dark cycle (08:00-20:00 hours). Drinking water and a standard rodent maintenance diet (Trouw Nutrition, Cheshire, UK) were freely available. In a separate experiment, Swiss Tylers Original (TO) mice purchased from Harlan Ltd. (Bicester, UK) were used at 5-7 weeks of age. Animals were housed as for ob/ob mice and given drinking water ad libitum. Normal TO mice were allowed free access to fed high fat diet (45% fat, 20% protein, 35% carbohydrate, 26.15 MJ/kg), high carbohydrate diet (10% fat, 20% protein, 70% carbohydrate, 18.80 MJ/kg) (Special Diets Service, Witham, Essex, UK), cafeteria diet (corresponding to approximately 33% fat, 19% protein, 48% carbohydrate, 16.39 MJ/kg) or normal rodent maintenance diet (10% fat, 30% protein, 60% carbohydrate; 14.2 MJ/kg, Trouw Nutrition, Cheshire, UK). The cafeteria diet comprised 6 daily rotations of 2 palatable food items per day (2 from: tuna, peanut butter, crisps, chocolate biscuits, madera cake, chocolate, luncheon meat, sausages, corned beef, cheese, marzipan). All animal experiments were carried out in accordance with the UK Animals (Scientific Procedures) Act 1986.
Food intake and body weight were recorded daily while plasma glucose and insulin concentrations were monitored at intervals of 3-6 days. Whole blood for the measurement of glycated hemoglobin was taken on day 60. In addition, plasma samples for measurement of cholesterol, circulating triglycerides, HDL-cholesterol (HDL-C) and LDL-cholesterol (LDL-C) were taken on day 60. […] Mice fasted for 18 hours were used to examine the metabolic response to 15 minutes feeding on day 60. In a separate series, pancreatic tissues were excised at the end of the 60-day treatment period and processed for immunohistochemistry or measurement of insulin following extraction with 5 ml/g of ice-cold acid ethanol (750 ml ethanol, 235 ml water, 15 ml concentrated HCl). Blood samples taken from the cut tip of the tail vein of conscious mice at the times indicated in the Figures were immediately centrifuged using a Beckman microcentrifuge (Beckman instruments, UK) for 30 seconds at 13,000×g. The resulting plasma was then aliquoted into fresh Eppendorf tubes and stored at −20° C. prior to glucose and insulin determinations. Normal control mice from the same genetic background were used for comparative purposes. […] Body weights were recorded daily and blood for determination of glycated hemoglobin was collected at end of study period.
Plasma glucose was assayed by an automated glucose oxidase procedure (Stevens, J. F., 1971, Clin. Chem. Acta 32:199-201) using a Beckman Glucose Analyzer II (Beckman Instruments, Galway, Ireland). Plasma and pancreatic insulin were assayed by a modified dextran-coated charcoal radioimmunoassay (Flatt, P. R., Bailey, C. J., 1981, Diabetologia 20:573-577). Plasma triglyceride and cholesterol levels were measured using a Hitachi Automatic Analyser 912 (Boehringer Mannheim, Germany). Glycated hemoglobin was determined using a commercially available kit purchased from Chirus Ltd. (Watford, UK).
Results are expressed as mean±SEM. Data were compared using ANOVA, followed by a Student-Newman-Keuls post hoc test. Area under the curve (AUC) analyzes were calculated using the trapezoidal rule with baseline subtraction. P<0.05 was considered to be statistically significant.

ob/ob mice [2] = assay: Acute antihyperglycaemic and insulin releasing activity with glucose and native GIP in ob/ob mice; format: in vivo, mouse; settings: 25 nmol/kg i.p. with GIP and glucose 18 mmol/kg, vs native GIP
Protocol: Animals. Obese diabetic (ob/ob) mice derived from the colony maintained at Aston University, UK (Bailey C. J. et al., 1982, Int. J. Obes. 6:11-21) were used at 14-18 weeks of age. Animals were age-matched, divided into groups and housed individually in an air-conditioned room at 22±2° C. with a 12 hour light: 12 hour dark cycle (08:00-20:00 hr). Drinking water and a standard rodent maintenance diet (Trouw Nutrition, Cheshire, UK) were freely available. All animal experiments were carried out in accordance with the UK Animals (Scientific Procedures) Act 1986.
Biochemical analysis. Plasma glucose was assayed by an automated glucose oxidase procedure ([…]) using a Beckman Glucose Analyzer II (Beckman Instruments, Galway, Ireland). Plasma insulin was assayed by radioimmunoassay.
Methods. […] All test solutions were administered in a final volume of 5 ml/kg body weight. Blood samples were collected from the cut tip of the tail vein of conscious mice into chilled fluoride/heparin coated glucose microcentrifuge tubes (Sarstedt, Numbrecht, Germany) immediately prior to injection and at 15, 30 and 60 minutes post injection. Blood samples were immediately centrifuged using a Beckmnan microcentrifuge (Beckman Instruments, High Wycombe, Buckinghamshire, UK) for 30 seconds at 13,000×g. Plasma glucose was assayed using a Beckman Glucose Analyzer n (Beckman Instruments, High Wycombe, Buckinghamshire, UK) (Stevens, J. F., 1971, Clin. Chim. Acta 32:199-201) and plasma insulin was determined by RIA (Flatt, P. R. and Bailey, C. J., 1981, Diabetologia 5:573-577). All animal studies were carried out in accordance with the UK Animals (Scientific Procedures) Act 1986.

normal mice = settings: once daily 11 days (Irwin 2004); cited from earlier work

DPP-IV, sequence (P27487 whole entry, species assumed): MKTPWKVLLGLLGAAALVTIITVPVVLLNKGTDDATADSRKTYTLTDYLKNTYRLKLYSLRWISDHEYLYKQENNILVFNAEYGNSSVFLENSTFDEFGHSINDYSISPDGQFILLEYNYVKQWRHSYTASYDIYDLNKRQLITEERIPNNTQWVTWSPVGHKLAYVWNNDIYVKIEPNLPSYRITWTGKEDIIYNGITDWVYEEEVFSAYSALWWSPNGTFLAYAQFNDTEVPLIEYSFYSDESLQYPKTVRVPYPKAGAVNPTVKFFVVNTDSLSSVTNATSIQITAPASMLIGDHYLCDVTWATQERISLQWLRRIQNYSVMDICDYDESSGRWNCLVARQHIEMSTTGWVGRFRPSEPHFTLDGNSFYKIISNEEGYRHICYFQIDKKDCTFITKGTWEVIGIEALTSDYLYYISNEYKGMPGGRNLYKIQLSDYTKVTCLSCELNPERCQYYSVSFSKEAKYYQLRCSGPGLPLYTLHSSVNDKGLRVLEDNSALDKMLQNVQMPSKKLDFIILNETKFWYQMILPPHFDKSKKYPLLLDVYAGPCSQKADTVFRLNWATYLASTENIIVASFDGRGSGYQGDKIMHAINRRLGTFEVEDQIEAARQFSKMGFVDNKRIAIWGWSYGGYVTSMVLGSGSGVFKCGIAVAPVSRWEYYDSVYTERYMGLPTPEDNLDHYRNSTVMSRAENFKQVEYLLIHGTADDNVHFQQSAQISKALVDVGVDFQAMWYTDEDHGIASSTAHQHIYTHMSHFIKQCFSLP

For “YAPGTFISDYSIAMDKIHQQDFVNWLLAQKGKKNDWKHNITQ [(Pro^3)GIP]”, the half-life at 2 μm (DPP-IV; DPP-IV enzyme (5 mU) in buffer, pH 7.8, incubation with DPP-IV, unit not given (time points in hrs), read-out: Estimated Half-Life (converted)) was over 8 h, the “Intact Peptide Remaining (%) 0 hrs.” value (DPP-IV; incubation with DPP-IV (5 mU), 37°C, pH 7.8, 0 hrs) was 100% and the remaining at 2 h, 2 μm (DPP-IV; isolated DPP-IV enzyme (5 mU), incubation with DPP-IV (5 mU), 37°C, pH 7.8, 2 hrs, read-out: Intact Peptide Remaining (%) 2 hrs.) was 100%. For the same sequence, the remaining at 4 h, 2 μm (DPP-IV; isolated DPP-IV enzyme (5 mU), incubation with DPP-IV (5 mU), 37°C, pH 7.8, 4 hrs, read-out: Intact Peptide Remaining (%) 4 hrs.) was 100%, the remaining at 8 h, 2 μm (DPP-IV; isolated DPP-IV enzyme (5 mU), incubation with DPP-IV (5 mU), 37°C, pH 7.8, 8 hrs, read-out: Intact Peptide Remaining (%) 8 hrs.) was 100% and the “resistance to DPP-IV degradation” value (DPP-IV; words, up to 8 hours incubation) was “completely resistant”. For the same sequence, the body weight gain (ob/ob mice [1]; 5-7 weeks old ob/ob mice, standard diet, 60 days) was “progressive decrease in body weight gain”, the “plasma insulin levels after 15 minute feeding” value (ob/ob mice [1]; 18 h fasted ob/ob mice, 60 days, vs saline) was “not significantly different” and the “plasma glucose responses to 15 minute feeding” value (ob/ob mice [1]; 18 h fasted ob/ob mice, 60 days, 15, 30, 60 and 105 min) was “significantly lowered”. The “decrease in body weight” value (ob/ob mice [1]; ob/ob mice, 25 nmol/kg/day i.p., 60 days, vs saline, did not reach significance) was about 17%, the “effect on food intake” value (ob/ob mice [1]; ob/ob mice, 25 nmol/kg/day, 60 days, vs saline) was “no effect; also recorded: without changing food intake” and the cholesterol levels (ob/ob mice [1]; ob/ob mice, 60 days, vs saline) was “unaltered”. For the same sequence, the circulating triglyceride concentrations (ob/ob mice [1]; ob/ob mice, 60 days, vs saline) was “significantly (P<0.05) reduced”, the enhanced insulin sensitivity (ob/ob mice [1]; ob/ob mice, 60 days, vs saline) was 1.5 fold and the “lowering of overall plasma glucose response to feeding” value (ob/ob mice [1]; ob/ob mice, 60 days, vs saline) was 1.7 fold. The “lowering of overall plasma glucose response to intraperitoneal glucose load” value (ob/ob mice [1]; ob/ob mice, 60 days, vs saline) was 1.9 fold, the pancreatic insulin content (ob/ob mice [1]; ob/ob mice, 60 days, vs saline) was “significantly (P<0.01) decreased” and the pancreatic weight (ob/ob mice [1]; ob/ob mice, 60 days, vs saline) was “no effect”. For the same sequence, the “reduced pancreatic insulin content” value (ob/ob mice [1]; ob/ob mice, 60 days, vs saline) was 1.5 fold, the “levels of LDL-C” value (ob/ob mice [1]; ob/ob mice, 60 days, vs saline, LDL-C calculated by Friedewald equation) was “significantly reduced” and the “plasma glucose concentrations following intraperitoneal glucose” value (ob/ob mice [1]; ob/ob mice, 60 days, 0, 15, 30 and 60 min after glucose 18 mmol/kg) was “significantly reduced”. For the same sequence, the “plasma insulin concentrations following intraperitoneal glucose” value (ob/ob mice [1]; ob/ob mice, 60 days, 15 min after glucose 18 mmol/kg) was “significantly (P<0.05) reduced”, the “hypoglycemic action of insulin (insulin sensitivity)” value (ob/ob mice [1]; ob/ob mice, 60 days, insulin 50 U/kg i.p.) was “significantly (P<0.05) augmented” and the “overall glycaemic excursion and insulinotropic response to glucose together with native GIP” value (ob/ob mice [1]; ob/ob mice, 60 days, native GIP 25 nmoles/kg) was “significant decrease”. For the same sequence, the glycated hemoglobin (ob/ob mice [1]; ob/ob mice, after 60 days treatment) was 4.1±0.1%, the non-fasting plasma glucose (ob/ob mice [1]; ob/ob mice, day 14 to day 60, vs saline) was “significantly reduced” and the non-fasting plasma insulin (ob/ob mice [1]; ob/ob mice, day 44, vs saline) was “significantly lowered”. For the same sequence, the “plasma glucose and insulin profiles when administered together with native GIP” value (ob/ob mice [2]) was “significantly inhibited the action of GIP” and the “glucose tolerance and insulin sensitivity” value (normal mice) was “reversible impairment of glucose tolerance associated with decreased insulin sensitivity”.
